Test results as given in patent publication US4260682A, “High sensitivity assays for angiotensin converting enzyme” (priority 1979, dated 1981).
Peptide text beside a SMILES is read from it. * marks the point of attachment. Bz = O=C(c1ccccc1)*

Assays:
[1] = molecular target: T1, Guinea pig serum ACE (Cavia porcellus, UniProt H0UWL7); test: Kinetics of (sulfate-stimulated) HipHisLeu hydrolysis; assay type: biochemical; conditions: for 1/V / V (reaction velocity): 0.1 M NaCl; for V (reaction velocity): 0.75 M Na2 SO4, pH 8.0, 37° C.
T1 sequence (H0UWL7 33-1234): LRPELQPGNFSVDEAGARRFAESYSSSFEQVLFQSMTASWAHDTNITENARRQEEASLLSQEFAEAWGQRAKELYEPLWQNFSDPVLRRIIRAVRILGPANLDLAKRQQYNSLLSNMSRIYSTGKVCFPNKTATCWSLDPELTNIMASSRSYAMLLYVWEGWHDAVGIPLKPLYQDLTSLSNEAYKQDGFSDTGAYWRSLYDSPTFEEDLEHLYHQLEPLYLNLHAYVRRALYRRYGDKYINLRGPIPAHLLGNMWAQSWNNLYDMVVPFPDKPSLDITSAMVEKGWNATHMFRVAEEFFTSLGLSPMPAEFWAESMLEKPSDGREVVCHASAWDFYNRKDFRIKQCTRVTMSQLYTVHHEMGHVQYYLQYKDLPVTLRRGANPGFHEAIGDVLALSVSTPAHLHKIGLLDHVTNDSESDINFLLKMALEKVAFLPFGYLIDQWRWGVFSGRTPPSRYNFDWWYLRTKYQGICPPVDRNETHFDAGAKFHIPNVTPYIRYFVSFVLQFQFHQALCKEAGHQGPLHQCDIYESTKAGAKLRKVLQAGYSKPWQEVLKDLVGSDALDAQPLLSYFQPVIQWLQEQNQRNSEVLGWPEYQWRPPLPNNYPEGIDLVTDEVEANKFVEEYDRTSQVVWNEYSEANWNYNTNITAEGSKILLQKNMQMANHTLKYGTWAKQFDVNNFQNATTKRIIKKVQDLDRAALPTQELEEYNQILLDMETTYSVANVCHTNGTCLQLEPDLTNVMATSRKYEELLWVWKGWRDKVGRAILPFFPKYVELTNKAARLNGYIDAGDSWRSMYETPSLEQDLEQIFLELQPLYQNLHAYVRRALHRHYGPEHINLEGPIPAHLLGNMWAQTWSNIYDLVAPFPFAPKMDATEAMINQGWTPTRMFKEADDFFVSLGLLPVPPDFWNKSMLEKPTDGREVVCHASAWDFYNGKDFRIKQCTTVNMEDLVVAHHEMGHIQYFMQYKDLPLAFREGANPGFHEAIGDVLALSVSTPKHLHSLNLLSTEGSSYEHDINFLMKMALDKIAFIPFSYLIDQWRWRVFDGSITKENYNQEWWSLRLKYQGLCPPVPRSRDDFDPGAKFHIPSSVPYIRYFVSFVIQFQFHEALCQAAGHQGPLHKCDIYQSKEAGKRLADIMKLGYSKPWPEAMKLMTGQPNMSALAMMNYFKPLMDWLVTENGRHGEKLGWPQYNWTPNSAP
Experimental: Kinetics of Sulfate-Stimulated HipHisLeu Hydrolysis
In each assay, 50 μl of Guinea pig serum diluted 1-20 (v/v) in the reaction buffer was mixed with 50 μl of buffer containing sufficient ^3 H-HipHisLeu to provide approximately 100,000 cpm total, together with sufficient unlabeled HipHisLeu to produce the desired substrate concentrations, as indicated in Table 2. […] The reaction mixture was then extracted with 1 ml ethyl acetate. 500 μl of the ethyl acetate fraction was sampled and counted in a scintillation counter.

[2] = system: ACE from rabbit lung; conditions: sodium chloride removed from reaction medium; cited from earlier work

With `CC(C)C[C@H](NC(=O)[C@H](Cc1c[nH]cn1)NC(=O)CNC(=O)c1ccccc1)C(=O)O` [HipHisLeu] (Bz-Gly-His-Leu-OH) the Vmax ([1]; 0.05 M Hepes, pH 8.0, 0.1 M NaCl, 0.75 M Na2 SO4, serum diluted 1-20) was 5.59 nmol/min/mL, the “reduction of Km” value ([1]; 0.75 M Na2 SO4 in reaction mixture containing 0.1 M NaCl) was “about 15 fold” and the 1/V ([1]; HipHisLeu 0.01 mM, 0.75 M Na2 SO4) was 3.33 nmole^-1 · min .multi. The “V (reaction velocity)” value ([1]; HipHisLeu 0.01 mM) was 0.30 nmol/min/mL, the 1/V ([1]; HipHisLeu 0.02 mM, 0.75 M Na2 SO4) was 1.92 nmole^-1 · min .multi and the “V (reaction velocity)” value ([1]; HipHisLeu 0.02 mM) was 0.52 nmol/min/mL. For the same compound, the 1/V ([1]; HipHisLeu 0.03 mM, 0.75 M Na2 SO4) was 1.35 nmole^-1 · min .multi, the “V (reaction velocity)” value ([1]; HipHisLeu 0.03 mM) was 0.74 nmol/min/mL and the 1/V ([1]; HipHisLeu 0.04 mM, 0.75 M Na2 SO4) was 0.78 nmole^-1 · min .multi. The “V (reaction velocity)” value ([1]; HipHisLeu 0.04 mM) was 1.28 nmol/min/mL, the 1/V ([1]; HipHisLeu 0.05 mM, 0.75 M Na2 SO4) was 0.88 nmole^-1 · min .multi and the “V (reaction velocity)” value ([1]; HipHisLeu 0.05 mM) was 1.14 nmol/min/mL. For the same compound, the 1/V ([1]; HipHisLeu 0.06 mM, 0.75 M Na2 SO4) was 0.78 nmole^-1 · min .multi, the “V (reaction velocity)” value ([1]; HipHisLeu 0.06 mM) was 1.28 nmol/min/mL and the 1/V ([1]; HipHisLeu 0.07 mM, 0.75 M Na2 SO4) was 0.47 nmole^-1 · min .multi. The “V (reaction velocity)” value ([1]; HipHisLeu 0.07 mM) was 2.14 nmol/min/mL, the 1/V ([1]; HipHisLeu 0.08 mM, 0.75 M Na2 SO4) was 0.57 nmole^-1 · min .multi and the “V (reaction velocity)” value ([1]; HipHisLeu 0.08 mM) was 1.76 nmol/min/mL. The “decrease in Km” value ([1]; sulfate ion 0.75-1.1 M vs. without) was 14 fold and the “inhibition on removal of sodium chloride” value [2] was 92%.
